For the experiment, the target named is Ribose 5-Phosphate Isomerase A (RPIA) (Homo sapiens, UniProt P49247). The experiment in a line: continuous spectrophotometric isomerase assay with recombinant RPIA. In kind it is biochemical. Set-up: recombinant Streptavidin-tagged human RPIA expressed in E. coli. From the text:
continuous spectrophotometric isomerase assay with recombinant RPIA on Ribose 5-Phosphate Isomerase A (RPIA) | validated its activity against the human isomerase in a continuous spectrophotometric assay.

SMILES strings stand for the structures.

Sequence of Ribose 5-Phosphate Isomerase A (RPIA) (P49247 whole entry): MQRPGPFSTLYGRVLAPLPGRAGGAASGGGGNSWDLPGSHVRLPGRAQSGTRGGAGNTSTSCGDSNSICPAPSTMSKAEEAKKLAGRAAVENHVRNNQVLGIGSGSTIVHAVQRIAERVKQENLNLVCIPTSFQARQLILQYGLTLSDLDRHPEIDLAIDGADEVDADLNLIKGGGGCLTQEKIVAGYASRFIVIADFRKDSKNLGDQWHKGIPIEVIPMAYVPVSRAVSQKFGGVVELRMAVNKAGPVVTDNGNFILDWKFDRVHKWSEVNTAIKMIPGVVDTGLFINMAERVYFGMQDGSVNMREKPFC

Regarding `O=C(NO)[C@H](O)[C@H](O)COP(=O)(O)O` [JNB-hu20-057-2A], the “continuous spectrophotometric isomerase assay with recombinant RPIA” value is listed as “validated its activity against the human isomerase in a continuous spectrophotometric assay. This shows the inhibitor suppresses the activity”.

For the origin of these results see publication PMC11217295, “The immune response to RNA suppresses nucleic acid synthesis by limiting ribose 5-phosphate” (The EMBO Journal, 2024).
